Results from PubChem BioAssay (NCI).
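Briefly, cells in 96-well plates were exposed to five compound concentrations for 48 h, and endpoints were estimated by linear interpolation. Abbreviation: GI50, concentration required for 50% inhibition of growth. TGI: concentration producing complete growth inhibition.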

What was measured:
Assay in all cases: NCI anticancer screen, dose series, 48 h; in the data active = GI50 below about 0.43 µM; inactive = the rest
HL-60(TB) leukemia = system: HL-60(TB) leukemia
BT-549 breast = system: BT-549 breast
UO-31 renal = system: UO-31 renal
OVCAR-5 ovarian = system: OVCAR-5 ovarian
NCI/ADR-RES ovarian = system: NCI/ADR-RES ovarian
IGROV1 ovarian = system: IGROV1 ovarian
HCC-2998 colon = system: HCC-2998 colon
SK-MEL-5 melanoma = system: SK-MEL-5 melanoma
TK-10 renal = system: TK-10 renal
UACC-257 melanoma = system: UACC-257 melanoma
NCI-H226 lung = system: NCI-H226 lung
HOP-92 NSCLC = system: HOP-92 NSCLC
SF-539 CNS = system: SF-539 CNS
MCF7 breast = system: MCF7 breast
HOP-62 NSCLC = system: HOP-62 NSCLC
KM12 colon = system: KM12 colon
A549 NSCLC = system: A549 NSCLC
K-562 leukemia = system: K-562 leukemia
HS 578T breast = system: HS 578T breast
SN12C renal = system: SN12C renal
M14 melanoma = system: M14 melanoma
DU-145 prostate = system: DU-145 prostate
MDA-MB-231 breast = system: MDA-MB-231 breast
A498 renal = system: A498 renal
SR leukemia = system: SR leukemia
LOX IMVI melanoma = system: LOX IMVI melanoma
OVCAR-3 ovarian = system: OVCAR-3 ovarian
786-0 renal = system: 786-0 renal
CAKI-1 renal = system: CAKI-1 renal
NCI-H460 lung = system: NCI-H460 lung
SK-OV-3 ovarian = system: SK-OV-3 ovarian
SNB-19 CNS = system: SNB-19 CNS
SK-MEL-2 melanoma = system: SK-MEL-2 melanoma
SF-295 CNS = system: SF-295 CNS
ACHN renal = system: ACHN renal
SNB-75 CNS = system: SNB-75 CNS
OVCAR-8 ovarian = system: OVCAR-8 ovarian
NCI-H23 lung = system: NCI-H23 lung
U251 CNS = system: U251 CNS
OVCAR-4 ovarian = system: OVCAR-4 ovarian
T-47D breast = system: T-47D breast
COLO 205 colon = system: COLO 205 colon
MOLT-4 leukemia = system: MOLT-4 leukemia
SF-268 CNS = system: SF-268 CNS
MDA-MB-435 = system: MDA-MB-435
MALME-3M melanoma = system: MALME-3M melanoma
RXF 393 renal = system: RXF 393 renal
HCT-15 colon = system: HCT-15 colon
HCT-116 colon = system: HCT-116 colon
RPMI-8226 leukemia = system: RPMI-8226 leukemia
CCRF-CEM leukemia = system: CCRF-CEM leukemia
SW-620 colon = system: SW-620 colon
HT29 colon = system: HT29 colon
UACC-62 melanoma = system: UACC-62 melanoma
SK-MEL-28 melanoma = system: SK-MEL-28 melanoma
PC-3 prostate = system: PC-3 prostate
EKVX NSCLC = system: EKVX NSCLC
NCI-H522 lung = system: NCI-H522 lung

COc1cc2c(c(OC)c1OC)-c1ccc(SC)c(=O)cc1[C@@H](NC1OC(CO)C(O)C(O)C1O)CC2 (stereo partly drawn)
195 nM: TGI (SK-MEL-5 melanoma)
24400 nM: TGI (U251 CNS)
> 100000 nM: TGI (BT-549 breast) | TGI (UO-31 renal) | TGI (OVCAR-5 ovarian) | TGI (NCI/ADR-RES ovarian) | TGI (IGROV1 ovarian) | TGI (HCC-2998 colon) | TGI (UACC-257 melanoma) | TGI (NCI-H226 lung) | TGI (MCF7 breast) | TGI (HOP-62 NSCLC) | TGI (A549 NSCLC) | TGI (K-562 leukemia) | TGI (SN12C renal) | TGI (M14 melanoma) | TGI (DU-145 prostate) | TGI (MDA-MB-231 breast) | TGI (SR leukemia) | TGI (LOX IMVI melanoma) | TGI (786-0 renal) | TGI (CAKI-1 renal) | TGI (NCI-H460 lung) | TGI (SK-OV-3 ovarian) | TGI (SNB-19 CNS) | TGI (SF-295 CNS) | TGI (ACHN renal) | TGI (SNB-75 CNS) | TGI (OVCAR-8 ovarian) | TGI (NCI-H23 lung) | TGI (OVCAR-4 ovarian) | TGI (T-47D breast) | TGI (MOLT-4 leukemia) | TGI (SF-268 CNS) | TGI (MALME-3M melanoma) | TGI (RXF 393 renal) | TGI (HCT-15 colon) | TGI (HCT-116 colon) | TGI (RPMI-8226 leukemia) | TGI (CCRF-CEM leukemia) | TGI (SW-620 colon) | TGI (UACC-62 melanoma) | TGI (SK-MEL-28 melanoma) | TGI (PC-3 prostate)
79.4 nM: TGI (HT29 colon)
61000 nM: TGI (HS 578T breast)
31200 nM: TGI (TK-10 renal)
inactive: GI50 (UACC-257 melanoma) 447 nM | GI50 (NCI-H226 lung) 1520 nM | GI50 (T-47D breast) > 74900 nM | GI50 (MALME-3M melanoma) 44800 nM | GI50 (SK-MEL-28 melanoma) 1650 nM
41.2 nM: TGI (COLO 205 colon)
> 57900 nM: TGI (HOP-92 NSCLC)
70.3 nM: TGI (SF-539 CNS)
76.2 nM: TGI (OVCAR-3 ovarian)
active: GI50 (HL-60(TB) leukemia) 22.7 nM | GI50 (BT-549 breast) 67.9 nM | GI50 (UO-31 renal) 86.4 nM | GI50 (OVCAR-5 ovarian) 51.9 nM | GI50 (NCI/ADR-RES ovarian) 55.6 nM | GI50 (IGROV1 ovarian) 63.5 nM | GI50 (HCC-2998 colon) 36.8 nM | GI50 (SK-MEL-5 melanoma) 28.8 nM | GI50 (TK-10 renal) 47.8 nM | GI50 (HOP-92 NSCLC) 37.3 nM | GI50 (SF-539 CNS) 24.3 nM | GI50 (MCF7 breast) 21.5 nM | GI50 (KM12 colon) 24 nM | GI50 (A549 NSCLC) 38.5 nM | GI50 (K-562 leukemia) 22.7 nM | GI50 (HS 578T breast) 42.5 nM | GI50 (SN12C renal) 55.7 nM | GI50 (M14 melanoma) 31.1 nM | GI50 (DU-145 prostate) 35.2 nM | GI50 (MDA-MB-231 breast) 34.1 nM | GI50 (A498 renal) 13.5 nM | GI50 (SR leukemia) 12.7 nM | GI50 (LOX IMVI melanoma) 37 nM | GI50 (OVCAR-3 ovarian) 24.4 nM | GI50 (786-0 renal) 57.5 nM | GI50 (CAKI-1 renal) 72.7 nM | GI50 (NCI-H460 lung) 33.2 nM | GI50 (SK-OV-3 ovarian) 39.6 nM | GI50 (SNB-19 CNS) 79.7 nM | GI50 (SK-MEL-2 melanoma) 23.7 nM | GI50 (SF-295 CNS) 33.8 nM | GI50 (ACHN renal) 74.4 nM | GI50 (SNB-75 CNS) 43.9 nM | GI50 (OVCAR-8 ovarian) 38.7 nM | GI50 (NCI-H23 lung) 56.8 nM | GI50 (U251 CNS) 31.8 nM | GI50 (OVCAR-4 ovarian) 226 nM | GI50 (COLO 205 colon) 16.1 nM | GI50 (MOLT-4 leukemia) 41.8 nM | GI50 (SF-268 CNS) 49 nM | GI50 (RXF 393 renal) 61.3 nM | GI50 (HCT-15 colon) 37.4 nM | GI50 (HCT-116 colon) 31.4 nM | GI50 (RPMI-8226 leukemia) 44.4 nM | GI50 (CCRF-CEM leukemia) 38.2 nM | GI50 (SW-620 colon) 29.4 nM | GI50 (HT29 colon) 28 nM | GI50 (UACC-62 melanoma) 54.9 nM | GI50 (PC-3 prostate) 34.7 nM
37.3 nM: TGI (MDA-MB-435)
66.6 nM: TGI (HL-60(TB) leukemia)
81 nM: TGI (SK-MEL-2 melanoma)
67.4 nM: TGI (A498 renal)

Cc1nc2ccccc2c(/C=C/c2ccc(Br)cc2)c1C(=O)/C=C/c1ccccc1
> 100000 nM: TGI (CCRF-CEM leukemia)
5440 nM: TGI (SNB-75 CNS)
2620 nM: TGI (CAKI-1 renal)
5100 nM: TGI (RPMI-8226 leukemia)
3460 nM: TGI (SK-MEL-2 melanoma)
4150 nM: TGI (SK-OV-3 ovarian)
6580 nM: TGI (HT29 colon)
2440 nM: TGI (UO-31 renal)
4980 nM: TGI (IGROV1 ovarian)
3710 nM: TGI (HCT-15 colon)
3680 nM: TGI (SN12C renal)
5310 nM: TGI (NCI/ADR-RES ovarian)
3020 nM: TGI (ACHN renal)
4480 nM: TGI (M14 melanoma)
5270 nM: TGI (HL-60(TB) leukemia)
3050 nM: TGI (SNB-19 CNS)
3370 nM: TGI (OVCAR-5 ovarian)
4450 nM: TGI (SW-620 colon)
inactive: GI50 (HL-60(TB) leukemia) 2170 nM | GI50 (BT-549 breast) 1860 nM | GI50 (UO-31 renal) 1210 nM | GI50 (EKVX NSCLC) 1750 nM | GI50 (OVCAR-5 ovarian) 1840 nM | GI50 (NCI/ADR-RES ovarian) 2130 nM | GI50 (IGROV1 ovarian) 1290 nM | GI50 (NCI-H522 lung) 1420 nM | GI50 (HCC-2998 colon) 1800 nM | GI50 (SK-MEL-5 melanoma) 1720 nM | GI50 (TK-10 renal) 2150 nM | GI50 (UACC-257 melanoma) 1680 nM | GI50 (NCI-H226 lung) 1670 nM | GI50 (SF-539 CNS) 1760 nM | GI50 (MCF7 breast) 895 nM | GI50 (HOP-62 NSCLC) 1760 nM | GI50 (KM12 colon) 1950 nM | GI50 (A549 NSCLC) 1910 nM | GI50 (SN12C renal) 1760 nM | GI50 (M14 melanoma) 1850 nM | GI50 (DU-145 prostate) 1620 nM | GI50 (MDA-MB-231 breast) 1840 nM | GI50 (A498 renal) 1750 nM | GI50 (SR leukemia) 1240 nM | GI50 (LOX IMVI melanoma) 1650 nM | GI50 (OVCAR-3 ovarian) 1520 nM | GI50 (786-0 renal) 1640 nM | GI50 (CAKI-1 renal) 1260 nM | GI50 (SK-OV-3 ovarian) 1880 nM | GI50 (SNB-19 CNS) 1620 nM | GI50 (SK-MEL-2 melanoma) 1750 nM | GI50 (ACHN renal) 1640 nM | GI50 (SNB-75 CNS) 1730 nM | GI50 (OVCAR-8 ovarian) 1570 nM | GI50 (NCI-H23 lung) 1660 nM | GI50 (U251 CNS) 1570 nM | GI50 (OVCAR-4 ovarian) 1690 nM | GI50 (T-47D breast) 1460 nM | GI50 (COLO 205 colon) 1510 nM | GI50 (MOLT-4 leukemia) 696 nM | GI50 (SF-268 CNS) 2140 nM | GI50 (MDA-MB-435) 1940 nM | GI50 (MALME-3M melanoma) 1700 nM | GI50 (RXF 393 renal) 1640 nM | GI50 (HCT-15 colon) 1310 nM | GI50 (HCT-116 colon) 601 nM | GI50 (RPMI-8226 leukemia) 1380 nM | GI50 (CCRF-CEM leukemia) 1480 nM | GI50 (SW-620 colon) 1540 nM | GI50 (HT29 colon) 1480 nM | GI50 (UACC-62 melanoma) 1540 nM | GI50 (SK-MEL-28 melanoma) 1890 nM
3630 nM: TGI (T-47D breast)
3540 nM: TGI (HCC-2998 colon)
3140 nM: TGI (OVCAR-3 ovarian)
2720 nM: TGI (MCF7 breast)
3400 nM: TGI (HOP-62 NSCLC) | TGI (SK-MEL-28 melanoma)
3940 nM: TGI (MDA-MB-231 breast)
4690 nM: TGI (MDA-MB-435)
6380 nM: TGI (SF-268 CNS)
3200 nM: TGI (SF-539 CNS)
3110 nM: TGI (SK-MEL-5 melanoma)
6600 nM: TGI (SR leukemia)
3320 nM: TGI (EKVX NSCLC)
4490 nM: TGI (BT-549 breast) | TGI (OVCAR-4 ovarian)
3070 nM: TGI (RXF 393 renal)
2970 nM: TGI (U251 CNS)
3040 nM: TGI (NCI-H522 lung)
4370 nM: TGI (KM12 colon)
5060 nM: TGI (MOLT-4 leukemia)
3480 nM: TGI (OVCAR-8 ovarian)
3810 nM: TGI (NCI-H23 lung)
3870 nM: TGI (TK-10 renal)
3010 nM: TGI (LOX IMVI melanoma) | TGI (UACC-62 melanoma)
3150 nM: TGI (DU-145 prostate)
3120 nM: TGI (MALME-3M melanoma)
2280 nM: TGI (HCT-116 colon)
3220 nM: TGI (UACC-257 melanoma)
3470 nM: TGI (COLO 205 colon)
3180 nM: TGI (786-0 renal)
3280 nM: TGI (A498 renal)
4570 nM: TGI (A549 NSCLC)
3350 nM: TGI (NCI-H226 lung)
